Laboratory results as given in patent US20110105623A1 (Biogenic Innovations, LLC, priority 2009, published 2011).
Values joined by “and” are separate entries in the source; they are usually repeats but may differ in a detail not shown here. Equal values may be shown once.

Test system: Lactobacillus acidophilus milk
Experiment: Growth in simulated gastric acid supplemented with MSM
Conditions: for Log Growth of L. acidophilus in milk average / Log Growth of L. acidophilus in milk in duplicate: simulated gastric acid

Methylsulfonylmethane [MSM]
Log Growth of L. acidophilus in milk average (5% MSM, 0 hours): 0.41 logs | Log Growth of L. acidophilus in milk average (5% MSM, 3 hours): 0.41 logs | Log Growth of L. acidophilus in milk average (5% MSM, 6 hours): 0.91 logs | Log Growth of L. acidophilus in milk in duplicate (5% MSM, 6 hours): 0.82 logs and 1 logs | Log Growth of L. acidophilus in milk average (5% MSM, 9 hours): 0.52 logs | Log Growth of L. acidophilus in milk in duplicate (5% MSM, 9 hours): 0.52 logs | Log Growth of L. acidophilus in milk average (5% MSM, 12 hours): 1.10 logs | Log Growth of L. acidophilus in milk average (5% MSM, 15 hours): 1.43 logs | Log Growth of L. acidophilus in milk in duplicate (5% MSM, 15 hours): 1.43 logs | Log Growth of L. acidophilus in milk average (5% MSM, 24 hours): 1.66 logs | Log Growth of L. acidophilus in milk in duplicate (5% MSM, 24 hours): 1.67 logs and 1.64 logs | Log Growth of L. acidophilus in milk average (5% MSM, 48 hours): 1.33 logs | Log Growth of L. acidophilus in milk in duplicate (5% MSM, 48 hours): 1.22 logs and 1.43 logs | decrease in growth (5.0% MSM, Hour 48): 0.33 logs | increase in growth (5.0% MSM, at 24 hours): 0.23 logs | Log Growth of L. acidophilus in milk average ([…] MSM, 0 hours): 0 logs | Log Growth of L. acidophilus in milk in duplicate ([…] MSM, 0 hours): 0 logs | Log Growth of L. acidophilus in milk average ([…] MSM, 9 hours): 0.41 logs | decrease in growth ([…] MSM, Hour 48): 0.38 logs | decrease in growth ([…] MSM, at 24 hours): 0.11 logs | increase in growth (printed […] MSM, at 24 hours): 0.30 logs
